The values below come from paper PMC10308197 (Cell Insight, 2023).

Assay [1] has as its target T1, METTL9 (Homo sapiens, UniProt Q9H1A3). As to the kind of experiment: Isothermal titration calorimetry. Type of assay: binding. In general terms: ITC needs no label: the signal is the heat of the interaction.
Target sequence in this assay (Q9H1A3 whole entry): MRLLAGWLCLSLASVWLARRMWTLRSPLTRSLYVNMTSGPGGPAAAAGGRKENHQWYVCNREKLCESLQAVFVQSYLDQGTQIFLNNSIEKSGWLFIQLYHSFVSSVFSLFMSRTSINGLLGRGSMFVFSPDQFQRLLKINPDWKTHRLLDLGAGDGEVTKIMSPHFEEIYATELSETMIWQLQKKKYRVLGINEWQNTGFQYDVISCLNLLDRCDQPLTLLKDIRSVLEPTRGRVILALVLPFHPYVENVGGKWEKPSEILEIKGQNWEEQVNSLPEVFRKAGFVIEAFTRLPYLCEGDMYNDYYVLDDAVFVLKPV
The next assay deals with METTL9 mutants. As to the kind of experiment: ITC of mutant METTL9 titrated with SAH. It is filed as binding, human. To be noted: METTL9 T173A, T115A and N118A (range over the three mutants).
The target of assay [2] is T1, METTL9. It is filed as biochemical. To be noted: mono-methylated product monitored, N = 3.
Target sequence in this assay (Q9H1A3 19-318): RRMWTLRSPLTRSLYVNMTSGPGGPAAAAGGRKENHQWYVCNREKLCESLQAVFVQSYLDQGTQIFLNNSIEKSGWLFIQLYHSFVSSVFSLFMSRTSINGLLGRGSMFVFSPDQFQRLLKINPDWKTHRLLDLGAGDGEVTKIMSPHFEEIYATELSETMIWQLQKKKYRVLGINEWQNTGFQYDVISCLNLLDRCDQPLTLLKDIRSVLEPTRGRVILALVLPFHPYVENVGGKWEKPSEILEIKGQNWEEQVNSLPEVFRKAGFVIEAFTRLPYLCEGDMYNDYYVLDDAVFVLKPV
In the next assay the target is METTL9 D213S (human, UniProt Q9H1A3 19-318, D213S). The experiment in a line: ITC.
Sequence of METTL9 D213S (Q9H1A3 19-318 D213S): as the sequence (Q9H1A3 19-318) above, with D195S counted along it
The next assay has as its target METTL9 T115A (human, UniProt Q9H1A3 19-318, T115A). The experiment in a line: ITC.
The next assay deals with METTL9 D213N (human, UniProt Q9H1A3 19-318, D213N). As to the kind of experiment: ITC.
Sequence of METTL9 D213N (Q9H1A3 19-318 D213N): as the sequence (Q9H1A3 19-318) above, with D195N counted along it
The target in a further assay is D213S or D213N. The experiment in a line: ITC.
The next assay deals with T115A, V241G, and C297A. The experiment in a line: ITC.

Sequence of METTL9 T115A (Q9H1A3 19-318 T115A): as the sequence (Q9H1A3 19-318) above, with T97A counted along it

As to `Nc1ncnc2c1ncn2[C@@H]1O[C@H](CSCC[C@H](N)C(=O)O)[C@@H](O)[C@H]1O` [SAH, S-adenosylhomocysteine], at METTL9 [1], the affinity, expressed as Kd, was 3.1 µM. Further, the “decrease in SAH binding relative to wild type” value in the assay with METTL9 mutants was 2–10 fold.
Turning to `O=C(O)CN(CCN(CC(=O)O)CC(=O)O)CC(=O)O` [EDTA, ethylenediaminetetraacetic acid], the “effect on METTL9 enzymatic activity towards SLC39A7_55-70 in presence of zinc” value on METTL9 [2] (zinc ions removed by EDTA) is “completely restored”.
With `[Cl-].[Cl-].[Zn+2]` [ZnCl2], on METTL9 [2] (0.5 mM ZnCl2 added), the “effect on histidine methylation of SLC39A7_55-70 by METTL9” value is “substantially inhibited”.
For `C[S+](CC[C@H](N)C(=O)[O-])C[C@H]1O[C@@H](n2cnc3c(N)ncnc32)[C@H](O)[C@@H]1O` (some centres unmarked) [SAM, S-adenosylmethionine], the Kd (as a rule, the constant that tells how readily two partners part at equilibrium) on METTL9 [1] stood at 1.6 µM. In other words, the single-digit micromolar range.
Ac-HTHESWIHG-NH2 [SLC39A7_66-74] showed a Kd at METTL9 [1] of 6.7 µM.
Consider HTHESIWHG [SLC39A7_(66-74) peptide], for which the binding result with METTL9 D213S, with METTL9 T115A and in the assay with METTL9 D213N was “binds” throughout. The fold weakening of binding against wild-type METTL9 with D213S or D213N was 4 to 6 fold. In the assay with T115A, V241G, and C297A, the fold reduction of binding against wild-type METTL9 was 6 to 10 fold.
